Measurements reported in patent US20220089578A1, “COMPOUNDS AS GLP-1R AGONISTS” (Terns Pharmaceuticals, Inc., priority 2020, published 2022).

Biological target: human GLP-1R (Homo sapiens, UniProt P43220)
Experiment: GLP-1R Cell Assay 1: cAMP Hunter CHO-K1 GLP1R Gs cell line, HitHunter cAMP assay
Assay type: cell-based
Conditions: Table 2; cAMP Hunter CHO-K1 GLP1R Gs cells; percent activity normalized to Exendin-4
Method in brief: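 Luminescent enzyme-fragment-complementation immunoassay quantified cellular cAMP after 30-60 min compound exposure at 37 °C in HBSS/10 mM HEPES. Data from duplicate runs were normalised to Exendin-4 and fitted nonlinearly for EC50.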

human GLP-1R, sequence (P43220 24-463): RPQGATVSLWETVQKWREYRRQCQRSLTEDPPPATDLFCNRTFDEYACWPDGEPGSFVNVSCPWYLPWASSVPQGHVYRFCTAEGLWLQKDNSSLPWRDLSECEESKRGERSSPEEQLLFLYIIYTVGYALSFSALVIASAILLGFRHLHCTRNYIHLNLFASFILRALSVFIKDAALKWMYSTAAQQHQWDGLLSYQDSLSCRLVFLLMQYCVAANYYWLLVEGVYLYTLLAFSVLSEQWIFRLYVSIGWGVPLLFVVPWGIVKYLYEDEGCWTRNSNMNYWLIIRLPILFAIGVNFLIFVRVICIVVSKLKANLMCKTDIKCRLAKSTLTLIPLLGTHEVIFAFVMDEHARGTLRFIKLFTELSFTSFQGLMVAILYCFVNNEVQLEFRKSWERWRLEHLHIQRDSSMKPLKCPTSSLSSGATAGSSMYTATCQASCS

Row | Compound | EC50
1 | Cn1cc(COc2cccc(N3CCN(Cc4nc5ccc(C(=O)O)cc5n4C[C@@H]4CCO4)CC3)n2)cn1 [Compound 86, (S)-2-((4-(6-((1-methyl-1H-pyrazol-4-yl)methoxy)pyridin-2-yl)piperazin-1-yl)methyl)-1-(oxetan-2-ylmethyl)-1H-benzo[d]imidazole-6-carboxylic acid] | 75.3 nM
2 | N#Cc1ccc(COc2cccc(C3CCN([C@@H]4CCCn5c4nc4ccc(C(=O)O)cc45)CC3)n2)c(F)c1 [Compound 87, (R)-4-(4-(6-((4-cyano-2-fluorobenzyl)oxy)pyridin-2-yl)piperidin-1-yl)-1,2,3,4-tetrahydrobenzo[4,5]imidazo[1,2-a]pyridine-8-carboxylic acid] | > 500 nM
3 | O=C(O)c1ccc2nc(CN3CCN(c4cccc(OCC5CCC5)n4)CC3)n(C[C@@H]3CCO3)c2c1 [Compound 88, (S)-2-((4-(6-(cyclobutylmethoxy)pyridin-2-yl)piperazin-1-yl)methyl)-1-(oxetan-2-ylmethyl)-1H-benzo[d]imidazole-6-carboxylic acid] | 239 nM
4 | N#Cc1ccc(COc2cccc(C3CCN([C@H]4CCCn5c4nc4ccc(C(=O)O)cc45)CC3)n2)c(F)c1 [Compound 89, (S)-4-(4-(6-((4-cyano-2-fluorobenzyl)oxy)pyridin-2-yl)piperidin-1-yl)-1,2,3,4-tetrahydrobenzo[4,5]imidazo[1,2-a]pyridine-8-carboxylic acid] | 76.2 nM
5 | N#Cc1ccc(COc2cccc(C3CCN([C@@H]4CCCCn5c4nc4ccc(C(=O)O)cc45)CC3)n2)c(F)c1 [Compound 90, (R)-6-(4-(6-((4-cyano-2-fluorobenzyl)oxy)pyridin-2-yl)piperidin-1-yl)-7,8,9,10-tetrahydro-6H-benzo[4,5]imidazo[1,2-a]azepine-2-carboxylic acid] | > 500 nM
6 | N#Cc1ccc(COc2cccc(C3CCN([C@H]4CCCCn5c4nc4ccc(C(=O)O)cc45)CC3)n2)c(F)c1 [Compound 91, (S)-6-(4-(6-((4-cyano-2-fluorobenzyl)oxy)pyridin-2-yl)piperidin-1-yl)-7,8,9,10-tetrahydro-6H-benzo[4,5]imidazo[1,2-a]azepine-2-carboxylic acid] | 17.3 nM
7 | N#Cc1ccc(COc2ccn(C3CCN(Cc4nc5ccc(C(=O)O)cc5n4C[C@@H]4CCO4)CC3)n2)c(F)c1 [Compound 92, (S)-2-((4-(3-((4-cyano-2-fluorobenzyl)oxy)-1H-pyrazol-1-yl)piperidin-1-yl)methyl)-1-(oxetan-2-ylmethyl)-1H-benzo[d]imidazole-6-carboxylic acid] | 8.35 nM
8 | O=C(O)c1ccc2nc3n(c2c1)CCOC[C@H]3N1CCC(c2cccc(OCc3ccccc3)n2)CC1 [Compound 93, (S)-5-(4-(6-(benzyloxy)pyridin-2-yl)piperidin-1-yl)-1,2,4,5-tetrahydrobenzo[4,5]imidazo [1,2-d][1,4]oxazepine-9-carboxylic acid] | > 500 nM
9 | O=C(O)c1ccc2nc3n(c2c1)CCOC[C@@H]3N1CCC(c2cccc(OCc3ccccc3)n2)CC1 [Compound 94, (R)-5-(4-(6-(benzyloxy)pyridin-2-yl)piperidin-1-yl)-1,2,4,5-tetrahydrobenzo[4,5]imidazo[1,2-d][1,4]oxazepine-9-carboxylic acid] | 152 nM
10 | C[C@@H]1COC[C@H](N2CCC(c3cccc(OCc4ccc(C#N)cc4F)n3)CC2)c2nc3ccc(C(=O)O)cc3n21 [Compound 95, (1R,5R)-5-(4-(6-((4-cyano-2-fluorobenzyl)oxy)pyridin-2-yl)piperidin-1-yl)-1-methyl-1,2,4,5-tetrahydrobenzo[4,5]imidazo[1,2-d][1,4]oxazepine-9-carboxylic acid] | 46.6 nM
11 | C[C@@H]1COC[C@@H](N2CCC(c3cccc(OCc4ccc(C#N)cc4F)n3)CC2)c2nc3ccc(C(=O)O)cc3n21 [Compound 96, (1R,5S)-5-(4-(6-((4-cyano-2-fluorobenzyl)oxy)pyridin-2-yl)piperidin-1-yl)-1-methyl-1,2,4,5-tetrahydrobenzo[4,5]imidazo[1,2-d][1,4]oxazepine-9-carboxylic acid] | 78.1 nM
12 | O=C(O)c1ccc2nc(CN3CC[C@]4(c5cccc(OCc6ccccc6)n5)C[C@@H]4C3)n(C[C@@H]3CCO3)c2c1 [Compound 97, 2-(((1S,6R)-6-(6-(benzyloxy)pyridin-2-yl)-3-azabicyclo[4.1.0]heptan-3-yl)methyl)-1-(((S)-oxetan-2-yl)methyl)-1H-benzo[d]imidazole-6-carboxylic acid] | 18.6 nM
13 | O=C(O)c1ccc2nc(CN3CC[C@]4(c5cccc(OCc6ccc(Cl)cc6F)n5)C[C@@H]4C3)n(C[C@@H]3CCO3)c2c1 [Compound 98, 2-(((1S,6R)-6-(6-((4-chloro-2-fluorobenzyl)oxy)pyridin-2-yl)-3-azabicyclo[4.1.0]heptan-3-yl)methyl)-1-(((S)-oxetan-2-yl)methyl)-1H-benzo[d]imidazole-6-carboxylic acid] | 0.556 nM
14 | O=C(O)c1ccc2nc(CN3CCC(n4ccc(OCCc5ccccc5)n4)CC3)n(C[C@@H]3CCO3)c2c1 [Compound 99] | 2070 nM
15 | N#Cc1ccc(Cn2cnc3ccc(N4CCN(Cc5nc6ccc(C(=O)O)cc6n5C[C@@H]5CCO5)CC4)nc32)c(F)c1 [Compound 100, (S)-2-((4-(3-(4-cyano-2-fluorobenzyl)-3H-imidazo[4,5-b]pyridin-5-yl)piperazin-1-yl)methyl)-1-(oxetan-2-ylmethyl)-1H-benzo[d]imidazole-6-carboxylic acid] | 246 nM
16 | O=C(O)c1ccc2nc(CN3CCC(n4ccc(OCc5nc6ccccc6s5)n4)CC3)n(C[C@@H]3CCO3)c2c1 [Compound 101, (S)-2-((4-(3-(benzo[d]thiazol-2-ylmethoxy)-1H-pyrazol-1-yl)piperidin-1-yl)methyl)-1-(oxetan-2-ylmethyl)-1H-benzo[d]imidazole-6-carboxylic acid] | 28.7 nM
17 | N#Cc1ccc(COc2nn(C3CCN(Cc4nc5ccc(C(=O)O)cc5n4C[C@@H]4CCO4)CC3)cc2Cl)c(F)c1 [Compound 102, (S)-2-((4-(4-chloro-3-((4-cyano-2-fluorobenzyl)oxy)-1H-pyrazol-1-yl)piperidin-1-yl)methyl)-1-(oxetan-2-ylmethyl)-1H-benzo[d]imidazole-6-carboxylic acid] | 3.94 nM
18 | O=C(O)c1ccc2nc(CN3CCN(c4cccc(OCc5ccc6ocnc6c5)n4)CC3)n(C[C@@H]3CCO3)c2c1 [Compound 103, (S)-2-((4-(6-(benzo[d]oxazol-5-ylmethoxy)pyridin-2-yl)piperazin-1-yl)methyl)-1-(oxetan-2-ylmethyl)-1H-benzo[d]imidazole-6-carboxylic acid] | 5.54 nM
19 | N#Cc1ccc2c(c1)CCN(c1ccn(C3CCN(Cc4nc5ccc(C(=O)O)cc5n4C[C@@H]4CCO4)CC3)n1)C2 [Compound 105, (S)-2-((4-(3-(6-cyano-3,4-dihydroisoquinolin-2(1H)-yl)-1H-pyrazol-1-yl)piperidin-1-yl)methyl)-1-(oxetan-2-ylmethyl)-1H-benzo[d]imidazole-6-carboxylic acid] | > 500 nM
20 | N#Cc1ccc2c(c1)CCN(c1ccn(C3CCN(Cc4nc5ccc(C(=O)O)cc5n4C[C@@H]4CCO4)CC3)n1)CC2 [Compound 106, (S)-2-((4-(3-(7-cyano-1,2,4,5-tetrahydro-3H-benzo[d]azepin-3-yl)-1H-pyrazol-1-yl)piperidin-1-yl)methyl)-1-(oxetan-2-ylmethyl)-1H-benzo[d]imidazole-6-carboxylic acid] | > 500 nM
